# Reference: PubChem BioAssay AID256 (DTP/NCI, 2004)
# Values joined by “and” are separate entries in the source; they are usually repeats but may differ in a detail not shown here. Identical values can stand only once. Inconclusive results and toxic doses are left out.
# Test system: CD2F1 mice, L1210 leukemia ip, survival T/C
# Test: NCI In Vivo Anticancer Drug Screen. Data for tumor model L1210 Leukemia (intraperitoneal) in CD2F1 (CDF1) mice
# Conditions: higher = longer survival
# Protocol: The antitumor activity of compounds was measured in mice bearing transplantable tumors. Survival or tumor size were measured and the results are expressed as the measurement made in the treated group (T) divided by the measurement made in the vehicle treated control group (C). The tumor model used in this assay is L1210 Leukemia (intraperitoneal) in CD2F1 (CDF1) mice
# [1] = endpoint: median survival time, dose: 6.25 mg/kg/injection, schedule: Q01DX009 (ip), vehicle: saline with Tween-80
# [2] = endpoint: median survival time, dose: 10.0 mg/kg/injection, schedule: Q04DX003 (ip), vehicle: saline
# [3] = endpoint: median survival time, dose: 20.0 mg/kg/injection, schedule: Q04DX003 (ip), vehicle: saline
# [4] = endpoint: mean survival time, dose: 50.0 mg/kg/injection, schedule: Q04DX002 (ip), vehicle: saline with Tween-80
# [5] = endpoint: mean survival time, dose: 100.0 mg/kg/injection, schedule: Q04DX002 (ip), vehicle: saline with Tween-80
# [6] = endpoint: mean survival time, dose: 200.0 mg/kg/injection, schedule: Q04DX002 (ip), vehicle: saline with Tween-80
smiles,measurement,setting,value
O=C(Nc1ccccc1)c1c(O)[nH]c(=S)[nH]c1=O,T/C,"endpoint: median survival time, dose: 6.2 mg/kg/injection, schedule: Q01DX005 (iv), vehicle: other",124 % of control
same,T/C,"endpoint: median survival time, dose: 6.2 mg/kg/injection, schedule: Q01DX005 (iv), vehicle: saline with Tween-80",124 % of control
same,T/C,[1],116 % of control
same,T/C,"endpoint: median survival time, dose: 12.5 mg/kg/injection, schedule: Q01DX005 (iv), vehicle: other",124 % of control
same,T/C,"endpoint: median survival time, dose: 12.5 mg/kg/injection, schedule: Q01DX005 (iv), vehicle: saline with Tween-80",124 % of control
same,T/C,"endpoint: median survival time, dose: 20.0 mg/kg/injection, schedule: Q01DX009 (ip), vehicle: saline with Tween-80",119 % of control
same,T/C,"endpoint: median survival time, dose: 25.0 mg/kg/injection, schedule: Q01DX005 (iv), vehicle: other",158 % of control
same,T/C,"endpoint: median survival time, dose: 25.0 mg/kg/injection, schedule: Q01DX009 (ip), vehicle: other",197 % of control
same,T/C,"endpoint: median survival time, dose: 25.0 mg/kg/injection, schedule: Q01DX009 (ip), vehicle: water",124 % of control
same,T/C,"endpoint: median survival time, dose: 30.0 mg/kg/injection, schedule: Q01DX009 (ip), vehicle: saline with Tween-80",162 % of control
same,T/C,"endpoint: median survival time, dose: 44.0 mg/kg/injection, schedule: Q01DX009 (ip), vehicle: saline with Tween-80",157 % of control and 168 % of control
same,T/C,"endpoint: median survival time, dose: 50.0 mg/kg/injection, schedule: Q01DX009 (ip), vehicle: other",114 % of control
same,T/C,"endpoint: median survival time, dose: 50.0 mg/kg/injection, schedule: Q01DX009 (ip), vehicle: water",204 % of control
same,T/C,"endpoint: median survival time, dose: 67.0 mg/kg/injection, schedule: Q01DX009 (ip), vehicle: saline with Tween-80",182 % of control and 192 % of control
C1CCC(C2CCCC[N-]2)[N-]C1.CC(C)CC([NH-])C(=O)O.[Cl][Pt] (centres undefined),T/C,[2],96 % of control
same,T/C,[3],100 % of control
same,T/C,"endpoint: median survival time, dose: 40.0 mg/kg/injection, schedule: Q04DX003 (ip), vehicle: saline",97 % of control
same,T/C,"endpoint: median survival time, dose: 80.0 mg/kg/injection, schedule: Q04DX003 (ip), vehicle: saline",101 % of control and 104 % of control
same,T/C,"endpoint: median survival time, dose: 160.0 mg/kg/injection, schedule: Q04DX003 (ip), vehicle: saline",104 % of control
same,T/C,"endpoint: median survival time, dose: 320.0 mg/kg/injection, schedule: Q04DX003 (ip), vehicle: saline",93 % of control
C(CC1CO1)C1CO1 (centres undefined),T/C,"endpoint: mean survival time, dose: 2.5 mg/kg/injection, schedule: Q01DX009 (ip), vehicle: Klucel (hydroxypropylcellulose) (HPC)",98 % of control and 104 % of control
same,T/C,"endpoint: mean survival time, dose: 5.0 mg/kg/injection, schedule: Q01DX009 (ip), vehicle: Klucel (hydroxypropylcellulose) (HPC)",98 % of control and 104 % of control
same,T/C,"endpoint: mean survival time, dose: 10.0 mg/kg/injection, schedule: Q01DX009 (ip), vehicle: Klucel (hydroxypropylcellulose) (HPC)",92 % of control and 96 % of control
same,T/C,"endpoint: mean survival time, dose: 20.0 mg/kg/injection, schedule: Q01DX009 (ip), vehicle: Klucel (hydroxypropylcellulose) (HPC)",98 % of control and 104 % of control
same,T/C,"endpoint: mean survival time, dose: 40.0 mg/kg/injection, schedule: Q01DX009 (ip), vehicle: Klucel (hydroxypropylcellulose) (HPC)",95 % of control and 98 % of control
same,T/C,"endpoint: mean survival time, dose: 49.5 mg/kg/injection, schedule: Q01DX009 (ip), vehicle: Klucel (hydroxypropylcellulose) (HPC)",122 % of control
same,T/C,"endpoint: mean survival time, dose: 80.0 mg/kg/injection, schedule: Q01DX009 (ip), vehicle: Klucel (hydroxypropylcellulose) (HPC)",96 % of control and 98 % of control
O=C(O)C1CCC(CC2CCCCC2)CC1 (centres undefined),T/C,"endpoint: mean survival time, dose: 100.0 mg/kg/injection, schedule: Q04DX003 (ip), vehicle: saline with Tween-80",93 % of control
same,T/C,"endpoint: mean survival time, dose: 200.0 mg/kg/injection, schedule: Q04DX003 (ip), vehicle: saline with Tween-80",94 % of control
same,T/C,"endpoint: mean survival time, dose: 400.0 mg/kg/injection, schedule: Q04DX003 (ip), vehicle: saline with Tween-80",104 % of control
[Cl][Pt+2][Cl].[NH-]C1C(O)OC(CO)C(O)C1O.[NH-]C1C(O)OC(CO)C(O)C1O (centres undefined),T/C,"endpoint: median survival time, dose: 2.5 mg/kg/injection, schedule: Q04DX003 (ip), vehicle: saline",105 % of control
same,T/C,"endpoint: median survival time, dose: 5.0 mg/kg/injection, schedule: Q04DX003 (ip), vehicle: saline",110 % of control
same,T/C,[2],93 % of control
same,T/C,[3],100 % of control
same,T/C,"endpoint: median survival time, dose: 25.0 mg/kg/injection, schedule: Q04DX003 (ip), vehicle: saline",103 % of control
same,T/C,"endpoint: median survival time, dose: 50.0 mg/kg/injection, schedule: Q04DX003 (ip), vehicle: saline",105 % of control
same,T/C,"endpoint: median survival time, dose: 100.0 mg/kg/injection, schedule: Q04DX003 (ip), vehicle: saline",103 % of control
same,T/C,"endpoint: median survival time, dose: 200.0 mg/kg/injection, schedule: Q04DX003 (ip), vehicle: saline",101 % of control
NC(=O)c1ncn2c(=O)n(CCCl)nnc12,T/C,"endpoint: median survival time, dose: 3.0 mg/kg/injection, schedule: Q01DX009 (ip), vehicle: saline",174 % of control
same,T/C,"endpoint: median survival time, dose: 3.12 mg/kg/injection, schedule: Q01DX009 (ip), vehicle: saline",212 % of control
same,T/C,"endpoint: median survival time, dose: 6.0 mg/kg/injection, schedule: Q01DX009 (ip), vehicle: saline",223 % of control
same,T/C,"endpoint: median survival time, dose: 6.25 mg/kg/injection, schedule: Q01DX009 (ip), vehicle: saline",184 % of control and 214 % of control and 365 % of control
same,T/C,"endpoint: median survival time, dose: 6.25 mg/kg/injection, schedule: Q01DX009 (ip), vehicle: suspension in saline",182 % of control
same,T/C,"endpoint: median survival time, dose: 12.0 mg/kg/injection, schedule: Q01DX009 (ip), vehicle: saline",352 % of control
same,T/C,"endpoint: median survival time, dose: 12.5 mg/kg/injection, schedule: Q01DX009 (ip), vehicle: saline",222 % of control and 365 % of control (2×)
same,T/C,"endpoint: median survival time, dose: 12.5 mg/kg/injection, schedule: Q01DX009 (ip), vehicle: suspension in saline",322 % of control
same,T/C,"endpoint: median survival time, dose: 25.0 mg/kg/injection, schedule: Q01DX009 (ip), vehicle: suspension in saline",322 % of control
same,T/C,"endpoint: median survival time, dose: 50.0 mg/kg/injection, schedule: Q01DX009 (ip), vehicle: suspension in saline",100 % of control
N#CC1C2CCC(O2)C1C(=O)OCc1ccccc1 (centres undefined),T/C,"endpoint: mean survival time, dose: 25.0 mg/kg/injection, schedule: Q01DX009 (ip), vehicle: saline with Tween-80",102 % of control
same,T/C,"endpoint: mean survival time, dose: 25.0 mg/kg/injection, schedule: Q04DX002 (ip), vehicle: saline with Tween-80",106 % of control
same,T/C,"endpoint: mean survival time, dose: 50.0 mg/kg/injection, schedule: Q01DX009 (ip), vehicle: saline with Tween-80",102 % of control
same,T/C,[4],101 % of control
same,T/C,"endpoint: mean survival time, dose: 100.0 mg/kg/injection, schedule: Q01DX009 (ip), vehicle: saline with Tween-80",102 % of control
same,T/C,[5],101 % of control
same,T/C,[6],89 % of control
O=S1(=O)CC2(C1)CS(=O)(=O)C2,T/C,"endpoint: mean survival time, dose: 100.0 mg/kg/injection, schedule: Q01DX001 (ip), vehicle: saline with Tween-80",103 % of control
same,T/C,"endpoint: mean survival time, dose: 200.0 mg/kg/injection, schedule: Q01DX001 (ip), vehicle: saline with Tween-80",90 % of control
Cc1c(OCC(=O)O)cc(Cl)c(Cl)c1Cl,T/C,[4],105 % of control
same,T/C,[5],102 % of control
same,T/C,[6],121 % of control
COc1ccc(Cc2c[n+](C)cc3cc(N=O)c(OC)cc23)cc1O,T/C,"endpoint: mean survival time, dose: 100.0 mg/kg/injection, schedule: Q01DX001 (ip), vehicle: saline",104 % of control
same,T/C,"endpoint: mean survival time, dose: 200.0 mg/kg/injection, schedule: Q01DX001 (ip), vehicle: saline",102 % of control
COC(OC)c1[nH]c(=S)[nH]c(=O)c1Cc1cc(C)ccc1C,T/C,"endpoint: mean survival time, dose: 100.0 mg/kg/injection, schedule: Q04DX003 (ip), vehicle: saline sonified",101 % of control
same,T/C,"endpoint: mean survival time, dose: 200.0 mg/kg/injection, schedule: Q04DX003 (ip), vehicle: saline sonified",95 % of control
same,T/C,"endpoint: mean survival time, dose: 400.0 mg/kg/injection, schedule: Q04DX003 (ip), vehicle: saline sonified",101 % of control
CCOC(=O)c1ccc2c(ccc[n+]2C)c1,T/C,"endpoint: mean survival time, dose: 37.5 mg/kg/injection, schedule: Q01DX009 (ip), vehicle: saline with Tween-80",112 % of control
same,T/C,"endpoint: mean survival time, dose: 75.0 mg/kg/injection, schedule: Q01DX009 (ip), vehicle: saline with Tween-80",107 % of control
same,T/C,"endpoint: mean survival time, dose: 150.0 mg/kg/injection, schedule: Q01DX009 (ip), vehicle: saline with Tween-80",103 % of control
CO[C@@H]1[C@H](O)CC[C@]2(CO2)[C@H]1[C@@]1(C)O[C@@H]1CC=C(C)C,T/C,"endpoint: median survival time, dose: 1.56 mg/kg/injection, schedule: Q01DX009 (ip), vehicle: saline with Tween-80",101 % of control and 103 % of control
same,T/C,"endpoint: median survival time, dose: 3.12 mg/kg/injection, schedule: Q01DX009 (ip), vehicle: saline with Tween-80",93 % of control and 102 % of control
same,T/C,[1],97 % of control and 105 % of control
same,T/C,"endpoint: median survival time, dose: 12.5 mg/kg/injection, schedule: Q01DX009 (ip), vehicle: saline with Tween-80",101 % of control and 102 % of control
same,T/C,"endpoint: median survival time, dose: 25.0 mg/kg/injection, schedule: Q01DX009 (ip), vehicle: saline with Tween-80",101 % of control and 102 % of control
same,T/C,"endpoint: median survival time, dose: 50.0 mg/kg/injection, schedule: Q01DX009 (ip), vehicle: saline with Tween-80",97 % of control and 103 % of control
O=C(O)/C=C\C(=O)Nc1ccccc1NC(=O)/C=C/C(=O)O,T/C,"endpoint: mean survival time, dose: 100.0 mg/kg/injection, schedule: Q04DX003 (ip), vehicle: saline",110 % of control
same,T/C,"endpoint: mean survival time, dose: 200.0 mg/kg/injection, schedule: Q04DX003 (ip), vehicle: saline",99 % of control
same,T/C,"endpoint: mean survival time, dose: 400.0 mg/kg/injection, schedule: Q04DX003 (ip), vehicle: saline",101 % of control
Cc1cccc(N=Cc2ccc3c(c2)OCO3)c1,T/C,"endpoint: mean survival time, dose: 100.0 mg/kg/injection, schedule: Q04DX003 (ip), vehicle: Klucel (hydroxypropylcellulose) (HPC)",100 % of control
same,T/C,"endpoint: mean survival time, dose: 200.0 mg/kg/injection, schedule: Q04DX003 (ip), vehicle: Klucel (hydroxypropylcellulose) (HPC)",111 % of control
